In ChEMBL document CHEMBL5614385, “A peptide-salinomycin conjugate with a bystander effect reduces the stemness characteristics of ovarian cancer cells and enhances drug sensitivity” (Eur J Med Chem, 2024):
One block for each compound: values may come before it. Calls of active or inactive are those of the source. The rule behind the calls is not given here. Non-standard residues stand in square brackets, D forms with d. Residues, ends and D or L forms follow the SMILES beside them. *: point of attachment. X1 = CC[C@@H](C(=O)O)C1CC[C@H](C)C([C@@H](C)[C@H](O)[C@H](C)C(=O)[C@H](CC)C2O[C@]3(C=C[C@@H](NC(=O)CCS*)[C@]4(CC[C@@](C)(C5CC[C@](O)(CC)[C@H](C)O5)O4)O3)[C@H](C)C[C@@H]2C)O1; Sar = CNCC(=O)O

Tests used:
SK-OV-3 [1] = assay: Cytotoxicity against CD44 positive human SK-OV-3 cells assessed as reduction in cell viability at 100 uM preincubated with 10 and 100 uM of 4S)-4-[[(2S)-1-[(2S)-1-[(2S)-2-[[(2S)-2-[[(2S)-1-[(2S)-2-acetamido-6-amino-hexanoyl]pyrrolidine-2-carbonyl]amino]-3-hydroxy-propanoyl]amino]-3-hydroxy-propanoyl]pyrrolidine-2-carbonyl]pyrrolidine-2-carbonyl]amino]-5-[[(1S)-1-[[2-[[2-[[2-[[2-[[2-[[2-[[2-[[2-[[2-[[2-[[(1S)-2-amino-1-methyl-2-oxo-ethyl]amino]-2-oxo-ethyl]-methyl-amino]-2-oxo-ethyl]-methyl-amino]-2-oxo-ethyl]-methyl-amino]-2-oxo-ethyl]-methyl-amino]-2-oxo-ethyl]-methyl-amino]-2-oxo-ethyl]-methyl-amino]-2-oxo-ethyl]-methyl-amino]-2-oxo-ethyl]-methyl-amino]-2-oxo-ethyl]-methyl-amino]-2-oxo-ethyl]-methyl-carbamoyl]-3-carboxy-propyl]amino]-5-oxo-pentanoic acid for 1 hrs followed by compound addition and measured after 24 hrs by CCK8 assay; assay type: functional, cell-based
A2780 [2] = assay: Antitumor activity against CD44 negative human A2780 cells co-cultured with CD44 positive human SK-OV-3 cells in DMEM medium at varying ratio assessed as inhibition of cell growth at 20 uM incubated for 72 hrs by enzymatic immunoassay relative to control; assay type: functional
SK-OV-3/CDDP [3] = assay: Induction of ROS generation in human SK-OV-3/CDDP cells at 5 uM; assay type: functional, cell-based
A2780 [4] = assay: Antitumor activity against CD44 negative human A2780 cells co-cultured with CD44 positive human SK-OV-3 cells in DMEM medium at 4:6 ratio assessed as induction of cell death incubated for 72 hrs by enzymatic immunoassay; assay type: functional, cell-based; conditions: dose 2.5-20 µM
SK-OV-3/CDDP [5] = assay: Sensitization of cisplatin-induced antiproliferative activity against human SK-OV-3/CDDP cells assessed as reduction in cell viability at 1 uM incubated for 72 hrs by CCK8 assay; assay type: functional, cell-based
[6] = molecular target: CD44 antigen (Homo sapiens) (UniProt P16070); assay: Binding affinity to CD44 positive human SK-OV-3 cells at 5 uM incubated for 1 hrs by flow cytometric analysis; assay type: cell-based
CD44 antigen (Homo sapiens), sequence (P16070 whole entry): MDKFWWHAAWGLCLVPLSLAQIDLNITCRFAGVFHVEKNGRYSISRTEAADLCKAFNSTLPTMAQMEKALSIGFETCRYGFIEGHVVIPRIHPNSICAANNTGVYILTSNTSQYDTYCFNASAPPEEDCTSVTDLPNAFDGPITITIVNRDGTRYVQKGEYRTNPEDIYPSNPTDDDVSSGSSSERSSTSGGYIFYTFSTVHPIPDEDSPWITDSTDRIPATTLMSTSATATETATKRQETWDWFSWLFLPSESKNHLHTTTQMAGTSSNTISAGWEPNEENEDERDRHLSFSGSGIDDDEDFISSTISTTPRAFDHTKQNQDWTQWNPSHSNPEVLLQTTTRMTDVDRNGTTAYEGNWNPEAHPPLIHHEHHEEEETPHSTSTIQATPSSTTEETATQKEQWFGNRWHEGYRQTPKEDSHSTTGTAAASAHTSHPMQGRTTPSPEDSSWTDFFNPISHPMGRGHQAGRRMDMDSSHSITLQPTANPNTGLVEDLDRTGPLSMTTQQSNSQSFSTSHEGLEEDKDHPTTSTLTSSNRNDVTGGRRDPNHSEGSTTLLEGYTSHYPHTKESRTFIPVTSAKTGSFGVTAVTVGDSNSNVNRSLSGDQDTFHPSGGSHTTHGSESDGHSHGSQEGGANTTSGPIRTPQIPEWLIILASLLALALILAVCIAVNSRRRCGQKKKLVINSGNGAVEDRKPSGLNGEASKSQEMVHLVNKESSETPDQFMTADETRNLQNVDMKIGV

SK-OV-3 [7] = assay: Antitumor activity against CD44 positive human SK-OV-3 cells assessed as reduction in cell viability incubated for 72 hrs by CCK8 assay; assay type: functional, cell-based; conditions: SK-OV-3, 72 h
SK-OV-3 [8] = assay: Inhibition of cell migration in human SK-OV-3 cells at 5 uM incubated for 24 hrs by microscope based wound healing assay; assay type: functional
A2780 [9] = assay: Antitumor activity against CD44 negative human A2780 cells expressing GFP co-cultured with CD44 positive human SK-OV-3 cells in DMEM medium at 4:6 ratio assessed as decrease in fluorescence intensity incubated for 72 hrs by enzymatic immunoassay; assay type: functional, cell-based; conditions: dose 2.5-20 µM
A2780 [10] = assay: Antitumor activity against CD44 negative human A2780 cells assessed as reduction in cell viability incubated for 72 hrs by CCK8 assay; assay type: functional, cell-based; conditions: A2780, 72 h
SK-OV-3/CDDP [11] = assay: Antiproliferative activity against human SK-OV-3/CDDP cells; assay type: functional, cell-based
SK-OV-3/CDDP [12] = assay: Cytotoxicity against human SK-OV-3/CDDP cells assessed as inhibition of cell proliferation incubated for 72 hrs by CCK8 assay; assay type: functional, cell-based
[13] = molecular target: Vascular endothelial growth factor receptor 2 (Homo sapiens) (UniProt P35968); assay: Inhibition of VEGFR2 phosphorylation in human SK-OV-3 cells at 5 uM incubated for 24 hrs by Western blot analysis; assay type: cell-based
Vascular endothelial growth factor receptor 2 (Homo sapiens), sequence (P35968 whole entry): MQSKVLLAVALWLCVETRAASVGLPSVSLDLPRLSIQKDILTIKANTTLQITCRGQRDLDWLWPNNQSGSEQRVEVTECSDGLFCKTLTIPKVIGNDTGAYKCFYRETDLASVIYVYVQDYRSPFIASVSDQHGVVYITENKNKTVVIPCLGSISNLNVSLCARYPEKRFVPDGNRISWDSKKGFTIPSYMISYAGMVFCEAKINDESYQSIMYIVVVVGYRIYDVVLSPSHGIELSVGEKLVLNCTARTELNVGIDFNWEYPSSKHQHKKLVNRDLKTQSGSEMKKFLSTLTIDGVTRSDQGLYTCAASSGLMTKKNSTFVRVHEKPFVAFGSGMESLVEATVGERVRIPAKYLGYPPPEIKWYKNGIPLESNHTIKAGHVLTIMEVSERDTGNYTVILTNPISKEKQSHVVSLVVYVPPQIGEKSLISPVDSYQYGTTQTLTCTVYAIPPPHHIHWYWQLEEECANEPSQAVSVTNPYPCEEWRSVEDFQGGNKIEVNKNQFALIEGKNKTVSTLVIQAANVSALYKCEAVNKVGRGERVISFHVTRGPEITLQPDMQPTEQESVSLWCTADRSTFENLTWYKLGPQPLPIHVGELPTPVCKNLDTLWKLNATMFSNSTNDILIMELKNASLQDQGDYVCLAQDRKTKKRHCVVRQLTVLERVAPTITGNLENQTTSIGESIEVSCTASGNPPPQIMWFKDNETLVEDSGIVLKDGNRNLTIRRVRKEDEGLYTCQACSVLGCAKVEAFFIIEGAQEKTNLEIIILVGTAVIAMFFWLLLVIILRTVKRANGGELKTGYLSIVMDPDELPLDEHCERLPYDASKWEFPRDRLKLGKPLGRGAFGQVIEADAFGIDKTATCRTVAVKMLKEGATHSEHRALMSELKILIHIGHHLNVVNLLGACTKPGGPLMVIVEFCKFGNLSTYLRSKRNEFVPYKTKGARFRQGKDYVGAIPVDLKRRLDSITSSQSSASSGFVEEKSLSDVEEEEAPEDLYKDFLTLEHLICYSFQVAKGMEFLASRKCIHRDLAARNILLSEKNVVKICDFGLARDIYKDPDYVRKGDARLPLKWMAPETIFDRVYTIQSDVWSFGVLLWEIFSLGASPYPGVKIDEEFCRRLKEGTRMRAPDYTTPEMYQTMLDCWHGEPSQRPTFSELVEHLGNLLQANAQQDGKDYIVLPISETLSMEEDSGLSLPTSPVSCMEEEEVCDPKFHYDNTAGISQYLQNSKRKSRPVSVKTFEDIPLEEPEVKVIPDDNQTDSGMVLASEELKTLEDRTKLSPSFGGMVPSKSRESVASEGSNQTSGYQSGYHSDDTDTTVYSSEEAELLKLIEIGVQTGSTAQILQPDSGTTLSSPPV

A2780 [14] = assay: Antitumor activity against CD44 negative human A2780 cells expressing GFP co-cultured with CD44 positive human SK-OV-3 cells in DMEM medium at 5:5 ratio assessed as decrease in fluorescence intensity incubated for 72 hrs by enzymatic immunoassay; assay type: functional, cell-based; conditions: dose 2.5-20 µM
A2780 [15] = assay: Antitumor activity against CD44 negative human A2780 cells co-cultured with CD44 positive human SK-OV-3 cells in DMEM medium at 6:4 ratio assessed as induction of cell death incubated for 72 hrs by enzymatic immunoassay; assay type: functional, cell-based; conditions: dose 2.5-20 µM
A2780 [16] = assay: Binding affinity to CD44 negative human A2780 cells at 5 uM incubated for 1 hrs by flow cytometric analysis; assay type: functional, cell-based
SK-OV-3 [17] = assay: Antitumor activity against human SK-OV-3 cells xenografted in nude mouse assessed as tumor growth inhibition at 35 microg/kg, iv administered every 2 days for 21 days; assay type: functional, organism-based; conditions: dose 35.0 µg/kg, time 21.0 day
SK-OV-3 [18] = assay: Antiproliferative activity against human SK-OV-3 cells; assay type: functional, cell-based
SK-OV-3 [19] = assay: Antitumor activity against human SK-OV-3 cells xenografted in nude mouse assessed as reduction in oct-4 level administered intravenously every 2 days for 21 days by hematoxylin based immunohistochemistry analysis; assay type: functional, cell-based; conditions: route iv, time 21.0 day
SK-OV-3 [20] = assay: Downregulation of CD133 expression in human SK-OV-3 tumor stem cells at 10 uM incubated for 36 hrs by flow cytometric analysis; assay type: functional, cell-based
SK-OV-3 [21] = assay: Antitumor activity against human SK-OV-3 cells xenografted in nude mouse assessed as reduction in Nanog level administered intravenously every 2 days for 21 days by hematoxylin based immunohistochemistry analysis; assay type: functional, cell-based; conditions: route iv, time 21.0 day
A2780 [22] = assay: Antitumor activity against CD44 negative human A2780 cells co-cultured with CD44 positive human SK-OV-3 cells in DMEM medium at 5:5 ratio assessed as induction of cell death incubated for 72 hrs by enzymatic immunoassay; assay type: functional, cell-based; conditions: dose 2.5-20 µM
A2780 [23] = assay: Antitumor activity against CD44 negative human A2780 cells expressing GFP co-cultured with CD44 positive human SK-OV-3 cells in DMEM medium at 6:4 ratio assessed as decrease in fluorescence intensity incubated for 72 hrs by enzymatic immunoassay; assay type: functional, cell-based; conditions: dose 2.5-20 µM
SK-OV-3 [24] = assay: Inhibition of AKT phosphorylation in human SK-OV-3 cells at 5 uM incubated for 24 hrs by Western blot analysis; assay type: cell-based
[25] = Solubility of compound in water; assay type: physicochemical; conditions: buffer
SK-OV-3 [26] = assay: Effect on CD44 expression in CD44 positive human SK-OV-3 cells; assay type: functional, cell-based
SK-OV-3 [27] = assay: Inhibition of tumor sphere formation in agarose-treated human SK-OV-3 cells assessed as fold decrease in number of formed spheres at 0.5 to 5 uM incubated for 9 days by imaging analysis; assay type: functional; conditions: dose 0.5-5 µM; time 9 day
SK-OV-3 [28] = assay: Inhibition of cell invasion in human SK-OV-3 cells incubated for 24 hrs by crystal violet staining based transwell invasion assay; assay type: functional; conditions: dose 5.0 µM
SK-OV-3/CDDP [29] = assay: Reduction in intracellular GSH level in human SK-OV-3 cells at 5 uM incubated for 36 hrs; assay type: functional, cell-based
SK-OV-3 [30] = assay: Inhibition of tumor sphere formation in agarose-treated human SK-OV-3 cells assessed as decrease in number of formed spheres at 10 nM incubated for 9 days by imaging analysis; assay type: functional, cell-based; conditions: time 9.0 day

Activity [6]: Active
IC50 (SK-OV-3 [7]): 5.45 µM
IC50 (A2780 [10]): 47.1 µM
IC50 (SK-OV-3/CDDP [11]): 18.7 µg/mL
inhibition [13]: Active
IC50 (SK-OV-3 [18]): 5.21 µg/mL
solubility [25]: Soluble
Structure (SMILES): CC[C@@H](C(=O)[O-])C1CC[C@H](C)C([C@@H](C)[C@H](O)[C@H](C)C(=O)[C@H](CC)C2O[C@]3(C=C[C@@H](NC(=O)CCSSC[C@H](NC(=O)CN(C)C(=O)CN(C)C(=O)CN(C)C(=O)CN(C)C(=O)CN(C)C(=O)CN(C)C(=O)CN(C)C(=O)CN(C)C(=O)CN(C)C(=O)CN(C)C(=O)[C@H](CCC(=O)O)NC(=O)[C@H](CCC(=O)O)NC(=O)[C@@H]4CCCN4C(=O)[C@@H]4CCCN4C(=O)[C@H](CO)NC(=O)[C@H](CO)NC(=O)[C@@H]4CCCN4C(=O)[C@H](CCCCN)NC(C)=O)C(N)=O)[C@]4(CC[C@@](C)(C5CC[C@](O)(CC)[C@H](C)O5)O4)O3)[C@H](C)C[C@@H]2C)O1.[Na+] (stereo not given in full) (Ac-KPSSPPEE[Sar][Sar][Sar][Sar][Sar][Sar][Sar][Sar][Sar][Sar]C(X1)-NH2)
Activity (SK-OV-3 [1]): inactive
inhibition at 20 µM (A2780 [2]): > 80%
Activity (SK-OV-3/CDDP [3]): Active
Activity (A2780 [4]): Dose-Dependent Effect
Activity (SK-OV-3/CDDP [5]): Active
inhibition (SK-OV-3 [8]): Active
Activity (A2780 [9]): Dose-Dependent Effect
IC50 (SK-OV-3/CDDP [12]): 6.09 µM
Activity (A2780 [14]): Dose-Dependent Effect
Activity (A2780 [15]): Dose-Dependent Effect
Activity (A2780 [16]): inactive
Activity (SK-OV-3 [17]): Active
Activity (SK-OV-3 [19]): Active
Activity (SK-OV-3 [20]): Active
Activity (SK-OV-3 [21]): Active
Activity (A2780 [22]): Dose-Dependent Effect
Activity (A2780 [23]): Dose-Dependent Effect
inhibition (SK-OV-3 [24]): Active
Activity (SK-OV-3 [26]): inactive
fold change (FC) (SK-OV-3 [27]): 4.6
inhibition (SK-OV-3 [28]): Dose-Dependent Effect
Activity (SK-OV-3/CDDP [29]): Active

Structure (SMILES): CC(=O)O[C@H]1C(=O)[C@@]2(C)[C@H]([C@H](OC(=O)c3ccccc3)[C@]3(O)C[C@H](OC(=O)[C@H](O)[C@@H](NC(=O)c4ccccc4)c4ccccc4)C(C)=C1C3(C)C)[C@]1(OC(C)=O)CO[C@@H]1C[C@@H]2O
inhibition (SK-OV-3 [30]): Active
